Measured values from US20080234183A1, “Cell Penetrating Peptides” (priority 2002, published 2008).

Experiments:
[1] = tested on: human umbilical artery; assay: Blood vessel contraction measurement
Experimental: (§1) Dissected porcine hearts (260-390 g) were transported from local slaughterhouse to the laboratory in ice-cold Krebs-Henseleit solution (119 mM NaCl, 23.8 mM NaHCO3, 3 mM KCl, 1.14 mM NaH2PO4, 1.63 mM CaCl2, and 16.5 mM glucose). Left anterior descending coronary artery and great cardiac vein were isolated. Part of each blood vessel was used immediately after Isolation for contraction assays while part of it was kept frozen in liquid nitrogen for the membrane preparation. In some experiments blood vessels in which endothelium was mechanically removed were used. The same procedure was used also for the preparation of human umbilical blood vessels; umbilical cords were obtained from Obstetric Clinic of Ljubljana Clinical Center, Slovenia.
(§2) The measurements were performed as already described (20). Rings (5 mm wide) of blood vessels were cut and mounted into 10 ml tissue chamber filled with Krebs-Henseleit solution (37° C.; pH=7.4) which was oxygenated with the mixture of ^95% O2 and 5% CO2. Initial tension of 50 mN was applied and after equilibration 30 mM KCl was added to obtain stable Isometric contraction. The presence of endothelium was verified with substance P. After washing out of KCl and substance P and after the equilibration of the system was restored, test peptide was added into the tissue chamber and blood vessel contraction was recorded.

[2] = tested on: porcine left anterior descending coronary artery; assay: Blood vessel contraction measurement
Experimental: as §1, §2

[3] = tested on: great cardiac vein; assay: Blood vessel contraction measurement; parameters: species or system porcine
Experimental: as §1, §2

[4] = tested on: G-proteins from blood vessel membranes; assay: Rate of GTPγS binding to blood vessel membranes; format: biochemical; details: membranes from porcine left anterior descending coronary artery
Experimental: Frozen pieces of blood vessels were mechanically pulverized. Subsequently membranes were obtained according to the protocol of McKenzie (McKenzie, F. R. Signal Transduction (Milliqan, E., Ed.), Oxford University Press, Oxford, N.Y., Tokyo. (1992)) with minor modifications. Until used, they were kept frozen in the concentration of 1-2 mg protein/ml as determined by the method of Lowry (Lowry, O. H., Rosenbrough, N.Y., Farr, A. L. & Randall, R. J. J. Biol. Chem. 193, 265-275 (1951)). The same procedure (with the exception of pulverization of tissue) was used also for the preparation of membranes from Sf9 cells which overexpressed the G-proteins of different types; protein concentrations of these membrane preparations were between 0.2 and 0.4 mg/ml.
The binding to G-proteins from blood vessel membranes was followed as described by McKenzie (McKenzie, F. R. Signal Transduction (Milligan, E., Ed.), Oxford University Press, Oxford, N.Y., Tokyo. (1992)). Briefly, the membranes (final protein concentration in the assay mixture was 0.05 mg/ml) were incubated for 3 min in the absence and presence of peptides in different concentrations with 0.5 nM [^35S]GTPγS at 13° C. […] The remaining radioactivity contained in the filters was determined in the LKB 1214 Rackbeta liquid scintillation counter. Blank values were determined by replacing the membrane preparations with buffer.

[5] = target: T1, Gi (Bos taurus, UniProt P63097); assay: GTPase activity of Sf9 membranes overexpressing G-proteins; format: biochemical, bovine; details: 100 μM
T1 construct: made in house; host or cells: Sf9 insect cells (baculovirus); membranes used
From the text: (§3) Baculovirus transfer vectors harboring the genes for Gsα, Giα1 and β1γ2 were kindly provided by Dr. Tatsuya Haga (University of Tokyo, Tokyo, Japan). The cDNA for bovine Gsα (21) in pVL1392, bovine Giα1 (22) In pVL1392 and bovine β1γ2 (23) in pVL1393 were cotransfected with linearized baculovirus DNA (Pharmingen, San Diego, Calif., USA), and the resulted virus stocks were subjected to one round of plaque purification before generation of high-titer virus stocks. In the expression procedure, Sf9 cells at density of 2 million cells/ml in suspension culture were Infected with a ratio 2:1 of a versus βγ. Cells were harvested 48 h post-infection, washed in PBS and stored at −70° C. until membrane preparation.
(§4) Frozen pieces of blood vessels were mechanically pulverized. […] Until used, they were kept frozen in the concentration of 1-2 mg protein/ml as determined by the method of Lowry (Lowry, O. H., Rosenbrough, N.Y., Farr, A. L. & Randall, R. J. J. Biol. Chem. 193, 265-275 (1951)). […]
(§5) Incubation medium was standard TE-buffer, pH 7.5. […] Blank values were determined by the replacement of membrane solution with assay buffer. […] The radioactivity of the yielding radioactive phosphate was determined in Packard 3255 liquid scintillation counter.

[6] = target: T2, Gs (Bos taurus, UniProt P04896); assay: as above; format: biochemical, bovine; details: 100 μM
T2 construct: made in house; host or cells: Sf9 insect cells (baculovirus); membranes used
From the text: as §3, §4, §5

[7] = target: T3, Go (Homo sapiens, UniProt P09471); assay: as above; format: biochemical; details: 100 μM
T3 construct: made in house; host or cells: Sf9 insect cells (baculovirus); membranes used

[8] = target: T4, G11 (Homo sapiens, UniProt P29992); assay: as above; format: biochemical; details: 100 μM
T4 construct: made in house; host or cells: Sf9 insect cells (baculovirus); membranes used
T4 sequence (P29992 1-359): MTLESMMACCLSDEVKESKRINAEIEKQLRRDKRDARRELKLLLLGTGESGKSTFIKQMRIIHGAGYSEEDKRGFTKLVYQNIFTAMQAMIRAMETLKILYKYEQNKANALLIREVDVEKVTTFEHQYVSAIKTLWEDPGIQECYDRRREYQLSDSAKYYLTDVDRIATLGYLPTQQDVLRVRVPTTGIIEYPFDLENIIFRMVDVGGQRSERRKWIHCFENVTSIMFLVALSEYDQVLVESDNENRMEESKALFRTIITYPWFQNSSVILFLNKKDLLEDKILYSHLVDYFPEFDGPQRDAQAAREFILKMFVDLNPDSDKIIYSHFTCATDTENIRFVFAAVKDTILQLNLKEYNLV

[9] = tested on: N2A mouse neuroblastoma cells; assay: Cellular internalisation assay of fluorescein-labelled APP and PS peptides; format: cell-based; details: 10 μM, 37°
Experimental: Mouse neuroblastoma cells, N2A, were cultivated in Dulbecco's minimal essential medium with Glutamax-I, supplemented with 10% (v/v) fetal bovine serum, penicillin (100 U/ml) and streptomycin (100 μg/ml).
The cells used for Internalisation were seeded out on round glass coverslips in 24well plates. One day post seeding, the cells were semi confluent, and the medium was changed to serum-free medium. The fluorescein-labelled peptides were added, with a final concentration of 10 μM. After 60 min of incubation at 37°, the cells were washed 3 times with 1 ml of Hepes-Krebbs-Ringer-(HKR) buffer and fixed with 3% paraformaldehyde solution in phosphate-buffered saline solution (PBS) for 10 minutes. The cells were then washed 3 times with 1 ml of HKR-buffer, and the coverslips were mounted and sealed for microscopy studies.
The cell type used for the internalisation assays with the fluorescein'tagged peptides was N2A mouse neuroblastoma cells. This cell-line is commonly used in association with Alzheimer's disease studies, and serves as a good model cell-line for these internalisation assays where peptides derived from proteins involved in Alzheimer's disease were examined. These Internalisation assays were performed at 37° C., therefore the internalisation by endocytosis cannot be excluded.

[10] = tested on: N2A mouse neuroblastoma cells; assay: as above; format: cell-based
[11] = tested on: Porcine coronary artery; assay: Effect of M630 on porcine coronary artery
Experimental: CGRP receptor loop iC4, sequence 391-405 ([…]) was synthesised and tested at blood vessels as described for the ATLAR loop previously.
Porcine coronary artery was contracted by using KCl. After relaxation of the artery by washing, 50 μM M630 was applied. Contraction started after approximately 10 min and reached maximum in 15 to 20 min after application. […] The effect was reproducible and always very clearly observed. The lag-period of 10 min could be the time needed for the penetration of M630 into the cells.

[12] = tested on: N2a cells; assay: Cellular internalisation of M630 conjugated to fluorescein; format: cell-based; details: 5 μM, 1 h, 37° C.
Experimental: FIG. 42. Cellular internalisation of M630 conjugated to fluorescein in N2a cells, visualised by confocal microscope. The cells were incubated for 1 h at 37° C. with a final peptide concentration of 5 μM.

[13] = tested on: Bowes and Caco-2; assay: PenMMP14 uptake in cells expressing MMP14; format: cell-based, human
From the text: FIG. 24. Another example of an Inactivated selCPP. PenMMP14 uptake in Bowes (A) and B)) and Caco-2 (C) and D)). The left column is uptake of fluorescein labelled peptide (A) and C)) and the […] with coumarine label (B) and D)).

[14] = tested on: T5, YTA-2ps
T5 sequence: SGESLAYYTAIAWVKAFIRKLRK

T3 sequence (P09471 whole entry): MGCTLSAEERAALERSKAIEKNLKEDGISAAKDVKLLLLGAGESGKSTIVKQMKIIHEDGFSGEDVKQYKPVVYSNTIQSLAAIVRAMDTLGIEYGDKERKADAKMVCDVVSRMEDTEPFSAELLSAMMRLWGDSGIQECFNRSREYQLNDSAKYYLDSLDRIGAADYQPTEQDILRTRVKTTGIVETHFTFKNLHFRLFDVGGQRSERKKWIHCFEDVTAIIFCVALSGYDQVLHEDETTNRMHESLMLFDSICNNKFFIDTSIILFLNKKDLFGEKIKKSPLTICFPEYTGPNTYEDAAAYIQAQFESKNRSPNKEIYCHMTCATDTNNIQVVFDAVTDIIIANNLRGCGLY
T2 sequence (P04896 whole entry): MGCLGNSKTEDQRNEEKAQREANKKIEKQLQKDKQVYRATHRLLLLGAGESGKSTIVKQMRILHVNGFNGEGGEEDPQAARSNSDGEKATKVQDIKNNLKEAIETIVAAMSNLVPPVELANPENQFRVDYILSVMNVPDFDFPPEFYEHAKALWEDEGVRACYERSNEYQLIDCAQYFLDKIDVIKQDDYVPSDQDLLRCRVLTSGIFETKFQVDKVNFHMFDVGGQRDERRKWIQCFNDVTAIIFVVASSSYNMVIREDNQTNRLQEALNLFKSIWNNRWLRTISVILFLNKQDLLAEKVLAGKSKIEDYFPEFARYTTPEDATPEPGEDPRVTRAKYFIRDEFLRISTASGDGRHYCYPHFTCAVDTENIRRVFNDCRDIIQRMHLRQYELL
T1 sequence (P63097 2-354 limits assumed): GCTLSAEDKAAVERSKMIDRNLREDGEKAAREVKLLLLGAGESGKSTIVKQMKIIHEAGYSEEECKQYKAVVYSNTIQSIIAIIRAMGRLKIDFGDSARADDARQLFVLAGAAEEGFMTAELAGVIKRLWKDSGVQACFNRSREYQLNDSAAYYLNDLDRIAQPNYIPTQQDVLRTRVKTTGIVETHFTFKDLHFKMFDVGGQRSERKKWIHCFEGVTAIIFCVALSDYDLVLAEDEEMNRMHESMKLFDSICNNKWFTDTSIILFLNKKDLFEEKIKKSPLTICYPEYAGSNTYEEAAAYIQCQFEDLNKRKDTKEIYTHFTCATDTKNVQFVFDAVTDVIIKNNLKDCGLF

Substance: FLGKKFKKYFLQLLK [Peptide M511]
- blood vessel contraction compared with porcine artery [1]: Virtually Identical effect
- termination of contraction by washing [2]: could not be terminated by washing
- blood vessel contraction ([2]; 16 μM): intense and long-lasting contraction
- strength of contraction as % of maximal effect of potassium ion ([2]; 16 μM, comparable to 30 mM K+): approximately 50%
- contraction force higher than that induced by 30 mM KCl ([2]; 100 mM M511 (so in the source)): about 40%
- blood vessel contraction compared with porcine artery [3]: Virtually Identical effect
- rate of binding of GTPγS [4]: dose-dependently increased
- GTPase activity [5]: small but significant activation
- GTPase activity [6]: seems not to be affected
- GTPase activity [7]: small but significant activation
- GTPase activity [8]: moderate inhibition

Substance: KGKFQLYLKLKFKFL [Scrambled M511]
- blood vessel contraction ([2]; 16 μM): did not cause any contraction
- rate of binding of GTPγS [4]: not active

Substance: KKKQYTSIHHGVVEVD [APP (725-740)]
- cellular localisation [9]: mostly to the cytosol
- cellular internalisation ([9]; 60 min): increased fluorescence compared to the background
- internalisation at 4° C. [10]: not internalised

Substance: VQAILRRNWNQYKIQ [Peptide M630]
- effect on the contracted arteries [11]: no effect
- reversal of contraction by washing ([11]; 50 μM): Washing did not reverse the contraction
- time to start of contraction ([11]; 50 μM): approximately 10 min
- cell membrane penetration [12]: penetrates cell membranes by a non-endocytotic mechanism

Substance: coum-DEEQERSEN-IRQIKIWFQNRRMKWK*K-amide [SelCPP2]
- cellular uptake [13]: taken up in cells expressing MMP14

Substance: matrix metallo proteinase-2 (MMP-2)
- cleavage of the peptide by the protease, checked by mass spectrometry [14]: The correct cleavage of YTA-2 by MMP2 has also be confirmed by mass spectrometry (data not shown)
